The values that follow come from patent US20230167073A1 (Teijin Pharma Limited, priority 2020, published 2023).

In the experiment the target is T1, Human TRPC6 (Homo sapiens, UniProt Q9Y210).
T1 construct: expressed in transfected cells
T1 sequence (Q9Y210 1-931): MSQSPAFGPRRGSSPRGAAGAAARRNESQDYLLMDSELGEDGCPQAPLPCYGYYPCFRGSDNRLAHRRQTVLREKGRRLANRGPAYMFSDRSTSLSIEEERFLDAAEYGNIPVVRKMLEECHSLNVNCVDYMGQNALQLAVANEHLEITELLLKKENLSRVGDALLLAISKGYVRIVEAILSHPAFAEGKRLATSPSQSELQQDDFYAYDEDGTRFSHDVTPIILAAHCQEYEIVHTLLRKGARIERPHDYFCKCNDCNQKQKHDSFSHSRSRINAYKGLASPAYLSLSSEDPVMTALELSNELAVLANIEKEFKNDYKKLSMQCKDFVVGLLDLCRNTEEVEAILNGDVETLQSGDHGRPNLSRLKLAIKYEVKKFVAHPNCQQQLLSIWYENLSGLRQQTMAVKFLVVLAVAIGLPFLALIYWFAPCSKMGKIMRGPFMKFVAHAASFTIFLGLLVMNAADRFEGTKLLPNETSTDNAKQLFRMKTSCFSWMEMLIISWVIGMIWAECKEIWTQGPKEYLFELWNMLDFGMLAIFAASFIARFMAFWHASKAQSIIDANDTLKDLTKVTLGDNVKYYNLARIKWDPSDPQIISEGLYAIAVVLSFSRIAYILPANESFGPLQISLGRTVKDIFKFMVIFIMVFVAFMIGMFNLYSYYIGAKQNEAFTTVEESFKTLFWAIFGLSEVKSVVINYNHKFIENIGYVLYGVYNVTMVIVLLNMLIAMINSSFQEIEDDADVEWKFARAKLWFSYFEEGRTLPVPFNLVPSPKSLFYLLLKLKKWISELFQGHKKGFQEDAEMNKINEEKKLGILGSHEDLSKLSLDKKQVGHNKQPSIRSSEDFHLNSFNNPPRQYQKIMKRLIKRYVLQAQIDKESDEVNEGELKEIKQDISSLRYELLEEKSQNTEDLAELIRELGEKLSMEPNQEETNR
Description: Evaluation of TRPC6 channel inhibitory activity (1), FLIPR Calcium 5 Assay Kit, OAG stimulation (Compound Nos. 1-1293). The class given is cell-based. The conditions noted are these: Human TRPC6 stably-expressing cells, OAG 30 μM, FLIPR Calcium 5 Assay Kit; read-out: Inhibitory activity (pIC50 class) (converted). Put shortly: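 Readout is pIC50 from four-parameter logistic fitting of inhibition of the OAG-evoked (30 μM final) fluorescence calcium signal. Human TRPC6 stable cells are dye-loaded with probenecid, and compound is applied 20 min ahead of agonist.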
Take `Cn1nc(COC2CCCC2)cc1Oc1cc(C#N)ccc1-c1ccc(CCN)cn1` [Compound 245, 4-[5-(2-aminoethyl)pyridin-2-yl]-3-[5-(cyclopentyloxymethyl)-2-methylpyrazol-3-yl]oxybenzonitrile]: the IC50 is 10 to 1000 nM.

For the molecule `CN(C)c1cc(Oc2cc(F)ccc2-c2ccc(CN)cn2)n(C)n1` [compound 998, 5-[2-[5-(aminomethyl)pyridin-2-yl]-5-fluorophenoxy]-N,N,1-trimethylpyrazole-3-amine], the IC50 is 10 to 1000 nM.

As to `N#Cc1ccc(-c2ccc(CCN)cc2)c(C(=O)c2cnc(N3CCOCC3)o2)c1` [compound 1081, 4-[4-(2-aminoethyl)phenyl]-3-(2-morpholin-4-yl-1,3-oxazole-5-carbonyl)benzonitrile], the IC50 is 10 to 1000 nM.

Take `N#Cc1ccc(-c2ccc(CCN)cc2)c(Oc2cnnc(OC3CCCC3)c2)c1` [Compound 107, 4-[4-(2-aminoethyl)phenyl]-3-(6-cyclopentyloxypyridazin-4-yl)oxybenzonitrile]: the IC50 is 10 to 1000 nM.

With `CCOC(=O)CCNCCc1ccc(-c2ccc(C#N)cc2Oc2cc(N3CCOCC3)nc(C)n2)cc1` [Compound 54, ethyl 3-[2-[4-[4-cyano-2-(2-methyl-6-morpholin-4-ylpyrimidin-4-yl)oxyphenyl]phenyl]ethylamino] propanoate], the IC50 is greater than 1000 nM.

On to `Cc1nc(CN2CCC(F)CC2)cn1Cc1cc(C#N)ccc1-c1ncc(CCN)cn1` [compound 1177, 4-[5-(2-aminoethyl)pyrimidin-2-yl]-3-[[4-[(4-fluoropiperidin-1-yl)methyl]-2-methylimidazol-1-yl]methyl]benzonitrile], for which the IC50 was greater than 1000 nM.

On to `Cc1cc(Oc2cc(C#N)ccc2-c2ccc(C(N)C(N)=O)cn2)cc(N2CCOCC2)n1` (centres unmarked) [compound 418, 2-amino-2-[6-[4-cyano-2-(2-methyl-6-morpholin-4-ylpyridin-4-yl)oxyphenyl]pyridin-3-yl]acetamide], for which the IC50 was 10 to 1000 nM.

As for `N#Cc1ccc(-c2ncc(CN)cn2)c(C(=O)c2sc(N3CCOCC3)nc2C(F)(F)F)c1` [compound 1087, 4-[5-(aminomethyl)pyrimidin-2-yl]-3-[2-morpholin-4-yl-4-(trifluoromethyl)-1,3-thiazole-5-carbonyl]benzonitrile], the IC50 is less than 10 nM.

For the molecule `Cn1nc(C2CC2)cc1Oc1cc(C#N)ccc1-c1cccn2c([C@@H](N)CCO)nnc12` (stereo in doubt) [compound 533, 4-[3-(1-amino-3-hydroxypropyl)-[1,2,4]triazolo[4,3-a]pyridin-8-yl]-3-(5-cyclopropyl-2-methylpyrazol-3-yl)oxybenzonitrile], the IC50 is greater than 1000 nM.

Consider `Cn1nc(C(C)(C)C)cc1Oc1cc(C#N)ccc1-c1ccc(C(N)CO)cn1` (centres unmarked) [compound 413, 4-[5-(1-amino-2-hydroxyethyl)pyridin-2-yl]-3-(5-tert-butyl-2-methylpyrazol-3-yl)oxybenzonitrile], for which the IC50 was less than 10 nM.

For `Cn1nc(Br)cc1Oc1cc(C#N)ccc1-c1ncc(CN)cn1` [compound 929, 4-[5-(aminomethyl)pyrimidin-2-yl]-3-(5-bromo-2-methylpyrazol-3-yl)oxybenzonitrile], the IC50 is greater than 1000 nM.

For `CNC[C@H](O)c1cnn(-c2ccc(C#N)cc2Oc2cc(-c3ccccc3)nc(C)n2)c1` [Compound 231, 4-[4-[(1R)-1-hydroxy-2-(methylamino)ethyl]pyrazol-1-yl]-3-(2-methyl-6-phenylpyrimidin-4-yl)oxybenzonitrile], the IC50 was less than 10 nM.

For the molecule `Cc1nc(Oc2cc(C#N)ccc2-c2ncc(CN)cn2)cc(N2C=NCCC2)n1` [compound 850, 4-[5-(aminomethyl)pyrimidin-2-yl]-3-[6-(5,6-dihydro-4H-pyrimidin-1-yl)-2-methylpyrimidin-4-yl]oxybenzonitrile], the IC50 is less than 10 nM.

Consider `Cc1nc(Oc2cc(C#N)ccc2-c2ncc(CN)cn2)cc(N(C)CC2CC2)n1` [compound 796, 4-[5-(aminomethyl)pyrimidin-2-yl]-3-[6-[cyclopropylmethyl(methyl)amino]-2-methylpyrimidin-4-yl]oxybenzonitrile], for which the IC50 is 10 to 1000 nM.

With `Cn1nc(C(F)F)cc1Oc1cc(C#N)ccc1-c1ncc(CN)cn1` [compound 829, 4-[5-(aminomethyl)pyrimidin-2-yl]-3-[5-(difluoromethyl)-2-methylpyrazol-3-yl]oxybenzonitrile], the IC50 is 10 to 1000 nM.

For `Cc1cc(C(=O)c2cc(C#N)ccc2-c2ncc(CCN)cn2)cc(N2CCOCC2)n1` [Compound No. 1042, 4-[5-(2-Aminoethyl)pyrimidin-2-yl]-3-(2-methyl-6-morpholin-4-ylpyridine-4-carbonyl)benzonitrile], the IC50 was less than 10 nM.

Take `COCCOC(CN)c1ccc(-c2ccc(C#N)cc2Oc2cc(N3CCOCC3)nc(C)n2)cc1` (centres unmarked) [Compound 64, 4-[4-[2-amino-1-(2-methoxyethoxy)ethyl]phenyl]-3-(2-methyl-6-morpholin-4-ylpyrimidin-4-yl)oxybenzonitrile]: the IC50 is greater than 1000 nM.

In the case of `Cn1nc(C2CC2)cc1Oc1cc(C#N)ccc1-c1cc(N)nc2ccnn12` [compound 468, 4-(5-aminopyrazolo[1,5-a]pyrimidin-7-yl)-3-(5-cyclopropyl-2-methylpyrazol-3-yl)oxybenzonitrile], the IC50 is greater than 1000 nM.

`Cn1nc(C2CCOCC2)cc1Oc1cc(C#N)ccc1-c1cnc(CCN)cn1` [compound 389, 4-[5-(2-aminoethyl)pyrazin-2-yl]-3-[2-methyl-5-(oxan-4-yl)pyrazol-3-yl]oxybenzonitrile]: the IC50 is 10 to 1000 nM.

Consider `Cn1nc(N2CCCC2)cc1Oc1cc(C#N)ccc1-c1ccc([C@H](O)CN)cn1` [compound 545, 4-[5-[(1S)-2-amino-1-hydroxyethyl]pyridin-2-yl]-3-(2-methyl-5-pyrrolidin-1-ylpyrazol-3-yl)oxybenzonitrile], for which the IC50 was 10 to 1000 nM.

For `Cc1nc(Oc2cc(C#N)ccc2-n2cc([C@H](O)CN)cn2)cc(-c2cccc(C(F)(F)F)c2)n1` [compound 357, 4-[4-[(1S)-2-amino-1-hydroxyethyl]pyrazol-1-yl]-3-[2-methyl-6-[3-(trifluoromethyl)phenyl]pyrimidin-4-yl]oxybenzonitrile], the IC50 was 10 to 1000 nM.

For `N#Cc1ccc(-c2ccc(CCN)cn2)c(Oc2cnnc(N3CCOCC3)c2)c1` [Compound 89, 4-[5-(2-aminoethyl)pyridin-2-yl]-3-(6-morpholin-4-ylpyridazin-4-yl)oxybenzonitrile], the IC50 was greater than 1000 nM.

With `Cn1cc(C(=O)c2cc(F)ccc2-c2ncc(CCN)cn2)cn1` [compound 1100, [2-[5-(2-aminoethyl)pyrimidin-2-yl]-5-fluorophenyl]-(1-methylpyrazol-4-yl)methanone], the IC50 was greater than 1000 nM.

Consider `COCc1cncn1Cc1cc(C#N)ccc1-c1ccc(CCN)cc1` [compound 1116, 4-[4-(2-aminoethyl)phenyl]-3-[[5-(methoxymethyl)imidazol-1-yl]methyl]benzonitrile], for which the IC50 was greater than 1000 nM.

With `Cc1nc(Oc2cc(C#N)ccc2-c2ncc(CN)cn2)cc(N2CC(F)C2)n1` [compound 793, 4-[5-(aminomethyl)pyrimidin-2-yl]-3-[6-(3-fluoroazetidin-1-yl)-2-methylpyrimidin-4-yl]oxybenzonitrile], the IC50 was greater than 1000 nM.

Regarding `Cc1nc(Oc2cc(C#N)ccc2-c2ccc([C@H](O)CN)cn2)cc(N2CCCC2)n1` [compound 507, 4-[5-[(1S)-2-amino-1-hydroxyethyl]pyridin-2-yl]-3-(2-methyl-6-pyrrolidin-1-ylpyrimidin-4-yl)oxybenzonitrile], the IC50 is less than 10 nM.

Turning to `CC(C)Cn1cc(Cc2cc(F)ccc2-c2ccc(CCN)cn2)cn1` [compound 1221, 2-[6-[4-fluoro-2-[[1-(2-methylpropyl)pyrazol-4-yl]methyl]phenyl]pyridin-3-yl]ethanamine], the IC50 was 10 to 1000 nM.

On to `Cc1nc(C(=O)c2cc(C#N)ccc2-c2ncc(CCN)cn2)cc(N2CCOCC2)n1` [compound 1040, 4-[5-(2-aminoethyl)pyrimidin-2-yl]-3-(2-methyl-6-morpholin-4-ylpyrimidine-4-carbonyl)benzonitrile], for which the IC50 was 10 to 1000 nM.

With `Cn1cc(-c2cc(Oc3cc(C#N)ccc3-c3ncc(CN)cn3)n(C)n2)cn1` [compound 947, 4-[5-(aminomethyl)pyrimidin-2-yl]-3-[2-methyl-5-(1-methylpyrazol-4-yl)pyrazol-3-yl]oxybenzonitrile], the IC50 is greater than 1000 nM.
